Source: patent publication US20140158233A1, “AEROSOL DELIVERY TO A MICROFLUIDIC DEVICE” (PRESIDENT AND FELLOWS OF HARVARD COLLEGE, priority 2011, published 2014)

Test system: human alveolar epithelial cells (A549)
Assay: Aerosol delivery of a model agent to cells in a lung-on-a-chip (cell uptake, time-course fluorescence images)
Assay type: cell-based
Conditions: 50 micromolar fluorescein sodium in isotonic PBS, nebulized droplets, flow ~20 mL/hr into top channel; confluent A549 monolayer at air interface; images 0-10 min (FIGS. 14A-14D)
Text: In accordance with some embodiments described herein, an agent can be aerosolized and directed to a microfluidic channel for delivery of the agent to a cell. In some embodiments, the microfluidic channel can be present in a lung-on-a-chip device as described earlier. By way of example only, to evaluate efficacy of aerosol delivery to and/or deposition on a cell using one or more embodiments of the aerosol delivery device described herein, a monolayer of human alveolar epithelial cells (A549) was grown to confluence on the top side of a porous membrane of the lung-on-a-chip, for example, the one described in the International Patent Application WO 2010/009307, the content of which is incorporated herein by reference. In some embodiments, no cells were seeded on the bottom side of the membrane. […] In some embodiments, at least the top channel inlet port 1310 of the lung-on-a-chip 1300 can be modified to include an inertial impactor as described herein. […] The microchannel 142 (in fluid communication with the chamber 150) and the porous membrane 160 can be directly or indirectly connected to the top channel 1320 and the porous membrane 1340 of the lung-on-a-chip 1300. […]

SMILES: O=C1OC2(c3ccc(O)cc3Oc3cc(O)ccc32)c2ccccc21 [fluorescein, fluorescein sodium]
- cell uptake of aerosolized fluorescein after deposition on the cells: taken up by the cells
